Patent US9795626B2, “Cancer therapy using miRNAs” (THE UNIVERSITY OF WESTERN AUSTRALIA, priority 2012, dated 2017)
Several values for one entry are separate records, joined by “and”; a condition that tells them apart may be missing. Identical values can stand only once.

Columns and labels:
MM96L melanoma cells = assay: Cell viability assay (MTS) after miRNA transfection, with or without drug; Bliss synergy analysis; conditions: observed fractional inhibition of the combination
Protocol: (§1) Cells were seeded in 96-well plates at a density of 2.5×10^3 cells per well and transfected with miRNA precursor molecules as above. Cell viability was measured 5 days after transfection using CellTitre 96 Aqueous One Solution Cell Proliferation Assay Kit (MTS assay) and a FLUOstar OPTIMA microplate reader. For synergy analysis between drugs and miR-7-5p, cells were plated as above and drug or DMSO was added 3 days after transfection with miR-7-5p or miR-NC for 4 days, at which time cell viability was measured (7 days after transfection).
(§2) Statistical significance was calculated using Student's t test (one-tailed, unpaired) and the level of significance was set at p<0.05. Drug sensitivity (IC50) was calculated using GraphPad Software (GraphPad Prism, version 5.04). The Bliss additivism model was used for synergy analysis. […] Here, Ebliss is the fractional inhibition expected if the combination of miR-7-5p and drug B was exactly additive. If the experimentally measured fractional inhibition is greater than Ebliss, the combination is synergistic.

[1] = system: melanoma cell lines (SK-MEL-28, WM266-4, MM96L and A2058); assay: Drug sensitivity assay (cell viability after 4 days of drug); type: cell-based; conditions: 96 h, range over the melanoma cell lines
A2058 melanoma cells [2] = assay: Cell viability assay (MTS) after miRNA transfection, with or without drug; Bliss synergy analysis; conditions: observed fractional inhibition of the combination
Protocol: as §1, §2

SK-MEL-28 melanoma cells = assay: as above; conditions: observed fractional inhibition of the combination
Protocol: as §1, §2

A2058 melanoma cells [3] = assay: Drug sensitivity assay (cell viability after 4 days of drug); type: cell-based; conditions: Homo sapiens, 96 h, A2058 (wild type p53)
WM266-4 melanoma cells [4] = assay: as above; type: cell-based; conditions: Homo sapiens, WM 266-4, 96 h, WM266-4 (wild type p53)
WM266-4 melanoma cells [5] = assay: Cell viability assay (MTS) after miRNA transfection, with or without drug; Bliss synergy analysis; conditions: [miR-7-5p] 5 nM + [drug] 50 μM, observed fractional inhibition of the combination
Protocol: as §1, §2

[6] = [miR-7-5p] 5 nM + [drug] 100 nM
[7] = [miR-7-5p] 5 nM + [drug] 150 μM

IC50 [1] [µM]	IC50 (A2058 melanoma cells [3]) [µM]	IC50 (WM266-4 melanoma cells [4]) [µM]	SMILES	EObs (MM96L melanoma cells; [miR-7-5p] 2.5 nM^ + [drug] 50 nM)	EObs (A2058 melanoma cells [2]; [6])	EObs (SK-MEL-28 melanoma cells; [miR-7-5p] 5 nM + [drug] 50 nM)	EObs (SK-MEL-28 melanoma cells; [6])	EObs (MM96L melanoma cells; [7])	EObs (MM96L melanoma cells; [miR-7-5p] 5 nM + [drug] 500 μM)	EObs (A2058 melanoma cells [2]; [miR-7-5p] 5 nM + [drug] 50 μM)	EObs (A2058 melanoma cells [2]; [7])	EObs (WM266-4 melanoma cells [5])
0.08 to 0.23			CCCS(=O)(=O)Nc1ccc(F)c(C(=O)c2c[nH]c3ncc(-c4ccc(Cl)cc4)cc23)c1F [PLX4032, vemurafenib]	0.972 and 0.803 and 0.547	0.855 and 0.853 and 0.790	0.661	0.773					
	167	73.1	Cn1nnc2c(C(N)=O)ncn2c1=O [TMZ, temozolomide]					0.747	0.864 and 0.878	0.680	0.811 and 0.633	0.748 and 0.732
